Data published in PubChem BioAssay (NCI).
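Cultured in 96-well plates, cells were exposed to test compound for 48 hours across five concentrations. Here, GI50 denotes the concentration required for 50% inhibition of growth. Definition used: TGI = concentration required for complete inhibition of growth.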

Columns and labels:
Test in all cases: NCI anticancer screen, dose series, 48 h
DU-145 prostate = test system: DU-145 prostate
MDA-MB-435 = test system: MDA-MB-435
MDA-N = test system: MDA-N
SK-MEL-28 melanoma = test system: SK-MEL-28 melanoma
SNB-75 CNS = test system: SNB-75 CNS
OVCAR-8 ovarian = test system: OVCAR-8 ovarian
M14 melanoma = test system: M14 melanoma
U251 CNS = test system: U251 CNS
HCT-15 colon = test system: HCT-15 colon
NCI-H226 lung = test system: NCI-H226 lung
BT-549 breast = test system: BT-549 breast
RXF 393 renal = test system: RXF 393 renal
SR leukemia = test system: SR leukemia
COLO 205 colon = test system: COLO 205 colon
786-0 renal = test system: 786-0 renal
OVCAR-4 ovarian = test system: OVCAR-4 ovarian
UACC-257 melanoma = test system: UACC-257 melanoma
NCI-H522 lung = test system: NCI-H522 lung
TK-10 renal = test system: TK-10 renal
IGROV1 ovarian = test system: IGROV1 ovarian
LOX IMVI melanoma = test system: LOX IMVI melanoma
K-562 leukemia = test system: K-562 leukemia
MOLT-4 leukemia = test system: MOLT-4 leukemia
HOP-92 NSCLC = test system: HOP-92 NSCLC
SK-MEL-2 melanoma = test system: SK-MEL-2 melanoma
HL-60(TB) leukemia = test system: HL-60(TB) leukemia
OVCAR-5 ovarian = test system: OVCAR-5 ovarian
NCI-H460 lung = test system: NCI-H460 lung
RPMI-8226 leukemia = test system: RPMI-8226 leukemia
A549 NSCLC = test system: A549 NSCLC
CCRF-CEM leukemia = test system: CCRF-CEM leukemia
UACC-62 melanoma = test system: UACC-62 melanoma
SW-620 colon = test system: SW-620 colon
SF-539 CNS = test system: SF-539 CNS
HS 578T breast = test system: HS 578T breast
CAKI-1 renal = test system: CAKI-1 renal
SF-268 CNS = test system: SF-268 CNS
SK-MEL-5 melanoma = test system: SK-MEL-5 melanoma
T-47D breast = test system: T-47D breast
MDA-MB-231 breast = test system: MDA-MB-231 breast
ACHN renal = test system: ACHN renal
OVCAR-3 ovarian = test system: OVCAR-3 ovarian
KM12 colon = test system: KM12 colon
MALME-3M melanoma = test system: MALME-3M melanoma
A498 renal = test system: A498 renal
NCI/ADR-RES ovarian = test system: NCI/ADR-RES ovarian
EKVX NSCLC = test system: EKVX NSCLC
SF-295 CNS = test system: SF-295 CNS
SN12C renal = test system: SN12C renal
PC-3 prostate = test system: PC-3 prostate
HCC-2998 colon = test system: HCC-2998 colon
SNB-19 CNS = test system: SNB-19 CNS
MCF7 breast = test system: MCF7 breast
HT29 colon = test system: HT29 colon
SK-OV-3 ovarian = test system: SK-OV-3 ovarian
UO-31 renal = test system: UO-31 renal
HOP-62 NSCLC = test system: HOP-62 NSCLC
HCT-116 colon = test system: HCT-116 colon

CC1=C(C(=O)N[C@@H](CC(C)C)C(=O)O)N2C(=O)[C@@H](NC(=O)[C@@H](N)Cc3ccccc3)[C@H]2SC1
TGI (DU-145 prostate): > 100 µM | TGI (MDA-MB-435): > 100 µM | TGI (MDA-N): > 100 µM | TGI (SK-MEL-28 melanoma): > 100 µM | TGI (SNB-75 CNS): > 100 µM | TGI (OVCAR-8 ovarian): > 100 µM | TGI (M14 melanoma): > 100 µM | TGI (U251 CNS): > 100 µM | TGI (HCT-15 colon): > 100 µM | TGI (NCI-H226 lung): > 100 µM | TGI (BT-549 breast): > 100 µM | TGI (RXF 393 renal): > 100 µM | TGI (SR leukemia): > 100 µM | TGI (COLO 205 colon): > 100 µM | TGI (786-0 renal): > 100 µM | TGI (OVCAR-4 ovarian): > 100 µM | TGI (UACC-257 melanoma): > 100 µM | TGI (NCI-H522 lung): > 100 µM | TGI (TK-10 renal): > 100 µM | TGI (IGROV1 ovarian): > 100 µM | TGI (LOX IMVI melanoma): > 100 µM | TGI (K-562 leukemia): > 100 µM | TGI (MOLT-4 leukemia): > 100 µM | TGI (HOP-92 NSCLC): > 100 µM | TGI (SK-MEL-2 melanoma): > 100 µM | TGI (HL-60(TB) leukemia): > 100 µM | TGI (OVCAR-5 ovarian): > 100 µM | TGI (NCI-H460 lung): > 100 µM | TGI (RPMI-8226 leukemia): > 100 µM | TGI (A549 NSCLC): > 100 µM | TGI (CCRF-CEM leukemia): > 100 µM | TGI (UACC-62 melanoma): > 100 µM | TGI (SW-620 colon): > 100 µM | TGI (SF-539 CNS): > 100 µM | TGI (HS 578T breast): > 100 µM | TGI (CAKI-1 renal): > 100 µM | TGI (SF-268 CNS): > 100 µM | TGI (SK-MEL-5 melanoma): > 100 µM | TGI (T-47D breast): > 100 µM | TGI (MDA-MB-231 breast): > 100 µM | TGI (ACHN renal): > 100 µM | TGI (OVCAR-3 ovarian): > 100 µM | TGI (KM12 colon): > 100 µM | TGI (MALME-3M melanoma): > 100 µM | TGI (A498 renal): > 100 µM | TGI (NCI/ADR-RES ovarian): > 100 µM | TGI (EKVX NSCLC): > 100 µM | TGI (SF-295 CNS): > 100 µM | TGI (SN12C renal): > 100 µM | TGI (PC-3 prostate): > 100 µM | TGI (HCC-2998 colon): > 100 µM | TGI (SNB-19 CNS): > 100 µM | TGI (MCF7 breast): > 100 µM

CC(=N\O)/C(C)=N/O.CC(=N\O)/C(C)=N/O.CC(=N\O)/C(C)=N/O.CC(=N\O)/C(C)=N/O.[CH3-].[CH3-].[Co].[Co]
GI50 (DU-145 prostate): 30.9 µM | TGI (DU-145 prostate): > 100 µM | GI50 (MDA-MB-435): 15 µM | TGI (MDA-MB-435): 39.9 µM | GI50 (MDA-N): 16.3 µM | TGI (MDA-N): > 100 µM | GI50 (SK-MEL-28 melanoma): 30.2 µM | TGI (SK-MEL-28 melanoma): 90.9 µM | GI50 (SNB-75 CNS): 15.5 µM | TGI (SNB-75 CNS): 38.7 µM | GI50 (OVCAR-8 ovarian): 27.2 µM | TGI (OVCAR-8 ovarian): > 100 µM | GI50 (HT29 colon): 23 µM | TGI (HT29 colon): 82.5 µM | GI50 (M14 melanoma): 13 µM | TGI (M14 melanoma): 29.8 µM | GI50 (U251 CNS): 11.7 µM | TGI (U251 CNS): 24.1 µM | GI50 (HCT-15 colon): 24.8 µM | TGI (HCT-15 colon): > 100 µM | GI50 (NCI-H226 lung): 22.8 µM | TGI (NCI-H226 lung): 42.4 µM | GI50 (BT-549 breast): 15.1 µM | TGI (BT-549 breast): 33.8 µM | GI50 (RXF 393 renal): 16.7 µM | TGI (RXF 393 renal): 39.9 µM | GI50 (SK-OV-3 ovarian): 34.5 µM | TGI (SK-OV-3 ovarian): > 100 µM | GI50 (SR leukemia): 16.2 µM | TGI (SR leukemia): 50.1 µM | GI50 (COLO 205 colon): 15 µM | TGI (COLO 205 colon): 29.8 µM | GI50 (786-0 renal): 18.4 µM | TGI (786-0 renal): > 100 µM | GI50 (OVCAR-4 ovarian): 21.1 µM | TGI (OVCAR-4 ovarian): 83.5 µM | GI50 (UACC-257 melanoma): 14.8 µM | TGI (UACC-257 melanoma): 34.9 µM | GI50 (NCI-H522 lung): 12.2 µM | TGI (NCI-H522 lung): 27.8 µM | GI50 (TK-10 renal): 28.5 µM | TGI (TK-10 renal): 88.8 µM | GI50 (IGROV1 ovarian): 28 µM | TGI (IGROV1 ovarian): > 100 µM | GI50 (LOX IMVI melanoma): 14.4 µM | TGI (LOX IMVI melanoma): 31.2 µM | GI50 (K-562 leukemia): 20.4 µM | TGI (K-562 leukemia): > 100 µM | GI50 (MOLT-4 leukemia): 23.8 µM | TGI (MOLT-4 leukemia): 72.4 µM | GI50 (UO-31 renal): 19.3 µM | TGI (UO-31 renal): 48.5 µM | GI50 (HOP-92 NSCLC): 26.2 µM | TGI (HOP-92 NSCLC): 71.3 µM | GI50 (SK-MEL-2 melanoma): 11.8 µM | TGI (SK-MEL-2 melanoma): 27.5 µM | GI50 (HL-60(TB) leukemia): 17.6 µM | TGI (HL-60(TB) leukemia): 50.5 µM | GI50 (OVCAR-5 ovarian): 28.8 µM | TGI (OVCAR-5 ovarian): > 100 µM | GI50 (NCI-H460 lung): 14.6 µM | TGI (NCI-H460 lung): 40.7 µM | GI50 (RPMI-8226 leukemia): 12.8 µM | TGI (RPMI-8226 leukemia): 44.2 µM | GI50 (A549 NSCLC): 39.5 µM | TGI (A549 NSCLC): > 100 µM | GI50 (HOP-62 NSCLC): 14.7 µM | TGI (HOP-62 NSCLC): 59.2 µM | GI50 (UACC-62 melanoma): 15.1 µM | TGI (UACC-62 melanoma): 30.5 µM | GI50 (SW-620 colon): 29.4 µM | TGI (SW-620 colon): > 100 µM | GI50 (SF-539 CNS): 11.3 µM | TGI (SF-539 CNS): 32.1 µM | GI50 (HS 578T breast): 22 µM | TGI (HS 578T breast): 92.5 µM | GI50 (CAKI-1 renal): 35.5 µM | TGI (CAKI-1 renal): > 100 µM | GI50 (SF-268 CNS): 21.6 µM | TGI (SF-268 CNS): 72.3 µM | GI50 (SK-MEL-5 melanoma): 15.3 µM | TGI (SK-MEL-5 melanoma): 28.6 µM | GI50 (T-47D breast): 26.5 µM | TGI (T-47D breast): > 100 µM | GI50 (MDA-MB-231 breast): 25.3 µM | TGI (MDA-MB-231 breast): 76.7 µM | GI50 (ACHN renal): 35.4 µM | TGI (ACHN renal): > 100 µM | GI50 (OVCAR-3 ovarian): 15.9 µM | TGI (OVCAR-3 ovarian): 78.8 µM | GI50 (KM12 colon): 27 µM | TGI (KM12 colon): > 100 µM | GI50 (MALME-3M melanoma): 16.1 µM | TGI (MALME-3M melanoma): 30.7 µM | GI50 (A498 renal): 32.1 µM | TGI (A498 renal): 77.1 µM | GI50 (HCT-116 colon): 7.75 µM | TGI (HCT-116 colon): > 100 µM | GI50 (NCI/ADR-RES ovarian): > 100 µM | TGI (NCI/ADR-RES ovarian): > 100 µM | GI50 (EKVX NSCLC): 18.7 µM | TGI (EKVX NSCLC): 64.9 µM | GI50 (SF-295 CNS): 22.8 µM | TGI (SF-295 CNS): 76.5 µM | GI50 (SN12C renal): 21.9 µM | TGI (SN12C renal): > 100 µM | GI50 (PC-3 prostate): 21.2 µM | TGI (PC-3 prostate): 63.8 µM | GI50 (HCC-2998 colon): 13.1 µM | TGI (HCC-2998 colon): 26.9 µM | GI50 (SNB-19 CNS): 17.6 µM | TGI (SNB-19 CNS): > 100 µM | GI50 (MCF7 breast): 16.9 µM | TGI (MCF7 breast): > 100 µM
